Results published in patent US9492471B2, “Methods of treating a disease or disorder associated with Bruton'S Tyrosine Kinase” (Celgene Avilomics Research, Inc., priority 2013, dated 2016).
Like-named read-outs stand apart in the source and are kept apart here.

Legend:
Test in all cases: HotSpot kinase profiling
Assay type in all cases: biochemical
AXL = biological target: T1, AXL (Homo sapiens, UniProt P30530)
T1 construct: purchased Reaction Biology Corp
T1 sequence (P30530 26-894): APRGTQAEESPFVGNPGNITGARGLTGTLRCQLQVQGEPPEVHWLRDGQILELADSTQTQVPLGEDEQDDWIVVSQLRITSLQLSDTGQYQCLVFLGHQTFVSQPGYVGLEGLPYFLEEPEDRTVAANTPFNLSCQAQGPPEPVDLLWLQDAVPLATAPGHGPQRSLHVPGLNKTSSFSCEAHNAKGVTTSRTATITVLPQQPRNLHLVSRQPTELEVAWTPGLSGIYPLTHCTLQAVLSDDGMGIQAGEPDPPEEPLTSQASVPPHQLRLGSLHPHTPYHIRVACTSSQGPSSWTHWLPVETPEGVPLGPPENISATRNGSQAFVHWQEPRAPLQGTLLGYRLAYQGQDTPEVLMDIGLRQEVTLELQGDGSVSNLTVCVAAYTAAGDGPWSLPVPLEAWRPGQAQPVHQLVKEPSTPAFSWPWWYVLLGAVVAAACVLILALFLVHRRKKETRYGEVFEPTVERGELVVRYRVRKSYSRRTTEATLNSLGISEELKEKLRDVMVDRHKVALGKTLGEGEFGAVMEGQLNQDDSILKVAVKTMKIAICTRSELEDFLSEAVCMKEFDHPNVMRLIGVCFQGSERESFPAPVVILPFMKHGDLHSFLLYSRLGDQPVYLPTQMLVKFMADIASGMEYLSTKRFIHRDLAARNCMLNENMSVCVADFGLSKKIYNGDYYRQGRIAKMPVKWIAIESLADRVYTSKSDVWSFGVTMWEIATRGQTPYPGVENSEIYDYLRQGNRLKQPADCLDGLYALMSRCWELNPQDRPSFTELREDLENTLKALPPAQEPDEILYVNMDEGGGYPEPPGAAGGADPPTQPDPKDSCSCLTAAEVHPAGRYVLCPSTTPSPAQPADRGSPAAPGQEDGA
Procedure, shortened: (§1)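 Percent inhibition, averaged when run more than once and referenced to a DMSO negative control, came from a radioactive filter-binding readout on P81 paper. Reactions of kinase with freshly made substrate and cofactors ran for 2 h at room temperature.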

CAMK1a = biological target: T2, CAMK1a (Homo sapiens, UniProt Q14012)
T2 construct: purchased Reaction Biology Corp
T2 sequence (Q14012 whole entry): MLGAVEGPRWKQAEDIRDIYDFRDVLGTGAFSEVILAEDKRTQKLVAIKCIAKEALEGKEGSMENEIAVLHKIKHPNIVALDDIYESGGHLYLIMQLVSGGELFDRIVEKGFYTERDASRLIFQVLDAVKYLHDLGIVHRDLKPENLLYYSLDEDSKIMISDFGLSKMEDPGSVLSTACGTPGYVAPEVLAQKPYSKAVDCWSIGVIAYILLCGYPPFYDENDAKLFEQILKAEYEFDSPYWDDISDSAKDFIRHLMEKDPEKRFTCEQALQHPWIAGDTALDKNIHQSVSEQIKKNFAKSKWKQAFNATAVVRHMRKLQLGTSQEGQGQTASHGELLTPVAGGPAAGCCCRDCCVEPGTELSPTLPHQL
Procedure, shortened: as §1

FGFR4 = biological target: T3, FGFR4 (Homo sapiens, UniProt P22455)
T3 construct: purchased Reaction Biology Corp
T3 sequence (P22455 22-802): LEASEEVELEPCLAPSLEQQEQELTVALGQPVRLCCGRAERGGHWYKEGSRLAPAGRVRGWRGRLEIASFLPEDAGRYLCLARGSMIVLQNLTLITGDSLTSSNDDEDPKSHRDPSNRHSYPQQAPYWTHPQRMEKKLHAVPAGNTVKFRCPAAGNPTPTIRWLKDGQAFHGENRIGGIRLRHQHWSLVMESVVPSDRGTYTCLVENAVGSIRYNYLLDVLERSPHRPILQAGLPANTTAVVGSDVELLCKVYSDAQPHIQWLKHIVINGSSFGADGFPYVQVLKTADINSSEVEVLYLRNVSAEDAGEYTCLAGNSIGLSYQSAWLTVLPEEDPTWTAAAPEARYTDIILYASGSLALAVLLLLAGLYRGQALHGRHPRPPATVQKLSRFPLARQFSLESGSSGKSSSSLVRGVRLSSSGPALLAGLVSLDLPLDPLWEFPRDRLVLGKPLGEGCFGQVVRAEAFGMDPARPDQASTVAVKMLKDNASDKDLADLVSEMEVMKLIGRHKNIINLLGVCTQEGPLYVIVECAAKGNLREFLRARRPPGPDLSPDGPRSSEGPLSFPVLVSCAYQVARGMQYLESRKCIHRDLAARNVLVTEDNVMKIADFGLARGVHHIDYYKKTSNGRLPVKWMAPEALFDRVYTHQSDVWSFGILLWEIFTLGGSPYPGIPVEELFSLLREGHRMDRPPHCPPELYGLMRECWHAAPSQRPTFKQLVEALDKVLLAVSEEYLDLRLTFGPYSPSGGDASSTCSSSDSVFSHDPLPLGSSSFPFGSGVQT
Procedure, shortened: as §1

MINK/MINK1 = biological target: T4, MINK/MINK1 (Homo sapiens, UniProt Q8N4C8)
T4 construct: purchased Reaction Biology Corp
Procedure, shortened: as §1

OSR1/OXSR1 = biological target: T5, OSR1/OXSR1 (Homo sapiens, UniProt O95747)
T5 construct: purchased Reaction Biology Corp
T5 sequence (O95747 whole entry): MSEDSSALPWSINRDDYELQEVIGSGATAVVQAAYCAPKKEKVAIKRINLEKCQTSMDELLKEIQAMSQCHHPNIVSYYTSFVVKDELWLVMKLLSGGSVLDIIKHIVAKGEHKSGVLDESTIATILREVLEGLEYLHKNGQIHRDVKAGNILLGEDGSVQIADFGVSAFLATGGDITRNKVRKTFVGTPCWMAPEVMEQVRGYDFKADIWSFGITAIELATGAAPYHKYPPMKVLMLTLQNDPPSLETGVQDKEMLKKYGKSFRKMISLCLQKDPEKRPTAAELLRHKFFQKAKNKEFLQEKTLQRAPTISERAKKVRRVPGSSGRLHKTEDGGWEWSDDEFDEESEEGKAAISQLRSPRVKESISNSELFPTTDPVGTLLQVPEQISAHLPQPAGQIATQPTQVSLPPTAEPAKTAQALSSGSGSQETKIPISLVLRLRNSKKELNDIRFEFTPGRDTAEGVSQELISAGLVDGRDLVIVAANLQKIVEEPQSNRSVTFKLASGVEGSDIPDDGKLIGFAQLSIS
Procedure, shortened: as §1

PAK2 = biological target: T6, PAK2 (Homo sapiens, UniProt Q13177)
T6 construct: purchased Reaction Biology Corp
T6 sequence (Q13177 whole entry): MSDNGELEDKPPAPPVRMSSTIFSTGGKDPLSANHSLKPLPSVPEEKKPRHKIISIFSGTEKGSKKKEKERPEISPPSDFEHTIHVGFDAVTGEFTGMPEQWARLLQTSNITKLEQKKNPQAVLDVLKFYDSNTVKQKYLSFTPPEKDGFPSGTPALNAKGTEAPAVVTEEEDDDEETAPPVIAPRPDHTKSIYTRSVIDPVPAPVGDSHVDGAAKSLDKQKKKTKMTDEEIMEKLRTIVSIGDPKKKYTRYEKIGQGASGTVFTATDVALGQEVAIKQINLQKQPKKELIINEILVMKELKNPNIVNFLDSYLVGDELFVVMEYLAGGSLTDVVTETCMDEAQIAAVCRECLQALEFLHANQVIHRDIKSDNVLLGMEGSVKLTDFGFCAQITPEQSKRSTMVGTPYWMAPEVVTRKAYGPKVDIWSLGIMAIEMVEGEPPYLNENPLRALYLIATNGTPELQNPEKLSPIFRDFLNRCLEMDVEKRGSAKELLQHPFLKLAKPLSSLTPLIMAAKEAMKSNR
Procedure, shortened: as §1

PKG1b = biological target: T7, PKG1b (Homo sapiens, UniProt Q13976)
T7 construct: purchased Reaction Biology Corp
T7 sequence (Q13976 1-686 isoform Q13976-2): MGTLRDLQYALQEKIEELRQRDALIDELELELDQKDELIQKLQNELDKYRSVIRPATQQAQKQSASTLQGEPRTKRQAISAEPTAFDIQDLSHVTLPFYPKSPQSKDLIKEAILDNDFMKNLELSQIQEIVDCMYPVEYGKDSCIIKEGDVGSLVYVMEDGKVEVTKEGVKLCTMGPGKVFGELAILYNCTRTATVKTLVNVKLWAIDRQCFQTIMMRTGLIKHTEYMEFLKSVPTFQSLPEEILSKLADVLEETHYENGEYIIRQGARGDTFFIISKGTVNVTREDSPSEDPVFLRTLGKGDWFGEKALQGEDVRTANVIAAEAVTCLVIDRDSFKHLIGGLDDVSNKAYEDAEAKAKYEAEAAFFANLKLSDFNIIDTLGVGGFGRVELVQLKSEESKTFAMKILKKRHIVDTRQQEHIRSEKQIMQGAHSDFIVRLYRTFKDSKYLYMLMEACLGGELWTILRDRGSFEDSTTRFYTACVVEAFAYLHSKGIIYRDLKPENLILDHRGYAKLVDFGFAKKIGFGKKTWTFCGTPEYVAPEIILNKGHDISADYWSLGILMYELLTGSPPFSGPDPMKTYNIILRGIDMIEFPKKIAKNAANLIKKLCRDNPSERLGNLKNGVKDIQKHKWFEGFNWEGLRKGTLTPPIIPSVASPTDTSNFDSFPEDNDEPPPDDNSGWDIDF
Procedure, shortened: as §1

STK39/STLK3 = biological target: T8, STK39/STLK3 (Homo sapiens, UniProt Q9UEW8)
T8 construct: purchased Reaction Biology Corp
Procedure, shortened: as §1

WNK2 = biological target: T9, WNK2 (Homo sapiens, UniProt Q9Y3S1)
T9 construct: purchased Reaction Biology Corp
T9 sequence (Q9Y3S1 whole entry): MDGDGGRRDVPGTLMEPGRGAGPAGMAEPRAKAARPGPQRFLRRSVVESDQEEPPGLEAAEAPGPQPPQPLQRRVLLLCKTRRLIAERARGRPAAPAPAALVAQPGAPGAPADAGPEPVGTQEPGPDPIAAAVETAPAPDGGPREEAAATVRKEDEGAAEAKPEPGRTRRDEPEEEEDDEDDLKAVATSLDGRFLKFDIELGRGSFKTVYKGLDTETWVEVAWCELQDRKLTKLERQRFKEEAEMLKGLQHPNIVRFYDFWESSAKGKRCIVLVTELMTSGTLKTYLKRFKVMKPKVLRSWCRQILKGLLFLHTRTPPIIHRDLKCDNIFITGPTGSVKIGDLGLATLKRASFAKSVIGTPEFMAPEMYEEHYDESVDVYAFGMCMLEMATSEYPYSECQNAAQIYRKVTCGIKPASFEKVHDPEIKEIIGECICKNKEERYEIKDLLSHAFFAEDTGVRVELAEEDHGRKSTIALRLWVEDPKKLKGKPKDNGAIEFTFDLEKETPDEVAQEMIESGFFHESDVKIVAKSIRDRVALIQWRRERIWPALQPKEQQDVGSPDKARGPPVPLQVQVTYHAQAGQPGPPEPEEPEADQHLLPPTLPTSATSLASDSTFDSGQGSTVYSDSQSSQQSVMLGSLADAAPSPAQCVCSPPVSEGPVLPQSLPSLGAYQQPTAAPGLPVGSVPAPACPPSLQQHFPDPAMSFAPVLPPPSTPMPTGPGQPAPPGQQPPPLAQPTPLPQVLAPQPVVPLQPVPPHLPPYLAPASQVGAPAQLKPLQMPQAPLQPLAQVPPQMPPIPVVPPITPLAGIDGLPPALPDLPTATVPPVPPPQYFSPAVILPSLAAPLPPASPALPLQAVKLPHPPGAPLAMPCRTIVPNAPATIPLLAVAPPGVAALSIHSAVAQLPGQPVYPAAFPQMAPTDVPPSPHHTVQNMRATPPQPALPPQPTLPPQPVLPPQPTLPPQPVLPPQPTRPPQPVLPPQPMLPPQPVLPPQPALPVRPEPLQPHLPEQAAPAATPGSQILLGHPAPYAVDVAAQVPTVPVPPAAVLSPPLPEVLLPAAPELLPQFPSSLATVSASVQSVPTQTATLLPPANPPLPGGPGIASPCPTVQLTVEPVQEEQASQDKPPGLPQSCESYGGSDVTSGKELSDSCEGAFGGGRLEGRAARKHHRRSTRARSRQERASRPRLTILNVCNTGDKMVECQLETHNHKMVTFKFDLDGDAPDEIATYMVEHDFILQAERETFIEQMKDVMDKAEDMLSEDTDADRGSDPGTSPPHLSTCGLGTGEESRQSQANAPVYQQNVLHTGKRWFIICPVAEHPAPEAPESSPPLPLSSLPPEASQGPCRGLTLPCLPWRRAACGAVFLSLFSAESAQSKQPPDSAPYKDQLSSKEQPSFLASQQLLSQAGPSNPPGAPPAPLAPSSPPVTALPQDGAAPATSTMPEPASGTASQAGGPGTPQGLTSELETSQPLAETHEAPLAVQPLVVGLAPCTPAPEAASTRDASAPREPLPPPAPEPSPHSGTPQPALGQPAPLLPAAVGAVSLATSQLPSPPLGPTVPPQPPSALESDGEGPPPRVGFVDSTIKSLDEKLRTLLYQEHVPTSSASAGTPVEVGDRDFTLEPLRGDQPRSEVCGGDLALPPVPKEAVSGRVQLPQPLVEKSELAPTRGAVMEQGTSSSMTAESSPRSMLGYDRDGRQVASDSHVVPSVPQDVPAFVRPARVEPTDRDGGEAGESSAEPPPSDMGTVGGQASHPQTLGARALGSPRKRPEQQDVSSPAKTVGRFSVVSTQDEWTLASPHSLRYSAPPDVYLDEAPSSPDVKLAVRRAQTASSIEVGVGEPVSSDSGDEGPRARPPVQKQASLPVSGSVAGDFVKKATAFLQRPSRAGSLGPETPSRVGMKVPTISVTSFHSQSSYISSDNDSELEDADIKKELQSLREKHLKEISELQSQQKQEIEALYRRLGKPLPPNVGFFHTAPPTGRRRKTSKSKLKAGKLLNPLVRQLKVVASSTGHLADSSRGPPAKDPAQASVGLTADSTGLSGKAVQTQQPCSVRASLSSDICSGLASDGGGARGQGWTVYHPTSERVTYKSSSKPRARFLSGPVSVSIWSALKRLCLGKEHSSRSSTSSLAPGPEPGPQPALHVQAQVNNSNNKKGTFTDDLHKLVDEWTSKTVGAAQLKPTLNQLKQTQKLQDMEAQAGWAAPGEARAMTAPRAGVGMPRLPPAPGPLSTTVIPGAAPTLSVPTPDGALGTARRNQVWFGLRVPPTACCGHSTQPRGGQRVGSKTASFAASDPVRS
Procedure, shortened: as §1

[1] = read-out: % Enzyme Activity (relative to DMSO controls) Run 1
[2] = read-out: % Enzyme Activity (relative to DMSO controls) Run 2

**Q.** With `C=CC(=O)Nc1cccc(Nc2nc(Nc3ccc(OCCOC)c(F)c3)ncc2F)c1` [Compound 2] as the compound, how does the inhibition at 3 µM (AXL) read?
**A.** The inhibition at 3 µM was 51.3%.

**Q.** And the remaining activity at 3 µM (AXL; [1])?
**A.** Its remaining activity at 3 µM is 48.6%.

**Q.** What about the remaining activity at 3 µM (AXL; [2]) of the same compound?
**A.** The remaining activity at 3 µM was 48.8%.

**Q.** And the inhibition at 3 µM (CAMK1a)?
**A.** The inhibition at 3 µM was -10.4%.

**Q.** What about the remaining activity at 3 µM (CAMK1a; [1]) of the same compound?
**A.** Its remaining activity at 3 µM is 109%.

**Q.** What about the remaining activity at 3 µM (CAMK1a; [2]) of the same compound?
**A.** The remaining activity at 3 µM was 112%.

**Q.** And the inhibition at 3 µM (FGFR4)?
**A.** The inhibition at 3 µM was 35.1%.

**Q.** What about the remaining activity at 3 µM (FGFR4; [1]) of the same compound?
**A.** The remaining activity at 3 µM was 66.3%.

**Q.** What about the remaining activity at 3 µM (FGFR4; [2]) of the same compound?
**A.** The remaining activity at 3 µM was 63.4%.

**Q.** And the inhibition at 3 µM (MINK/MINK1)?
**A.** Its inhibition at 3 µM is 0.9%.

**Q.** What about the remaining activity at 3 µM (MINK/MINK1; [1]) of the same compound?
**A.** Its remaining activity at 3 µM is 101%.

**Q.** And the remaining activity at 3 µM (MINK/MINK1; [2])?
**A.** Its remaining activity at 3 µM is 97.5%.

**Q.** And the inhibition at 3 µM (OSR1/OXSR1)?
**A.** Its inhibition at 3 µM is -19.2%.

**Q.** What about the remaining activity at 3 µM (OSR1/OXSR1; [1]) of the same compound?
**A.** Its remaining activity at 3 µM is 117%.

**Q.** What about the remaining activity at 3 µM (OSR1/OXSR1; [2]) of the same compound?
**A.** Its remaining activity at 3 µM is 122%.

**Q.** And the inhibition at 3 µM (PAK2)?
**A.** The inhibition at 3 µM was 4.8%.

**Q.** What about the remaining activity at 3 µM (PAK2; [1]) of the same compound?
**A.** The remaining activity at 3 µM was 95.5%.

**Q.** What about the remaining activity at 3 µM (PAK2; [2]) of the same compound?
**A.** The remaining activity at 3 µM was 94.9%.

**Q.** What about the inhibition at 3 µM (PKG1b) of the same compound?
**A.** Its inhibition at 3 µM is 13.8%.

**Q.** And the remaining activity at 3 µM (PKG1b; [1])?
**A.** Its remaining activity at 3 µM is 85.4%.

**Q.** And the remaining activity at 3 µM (PKG1b; [2])?
**A.** The remaining activity at 3 µM was 87.1%.

**Q.** What about the inhibition at 3 µM (STK39/STLK3) of the same compound?
**A.** Its inhibition at 3 µM is 7.74%.

**Q.** What about the remaining activity at 3 µM (STK39/STLK3; [1]) of the same compound?
**A.** The remaining activity at 3 µM was 91.6%.

**Q.** And the remaining activity at 3 µM (STK39/STLK3; [2])?
**A.** Its remaining activity at 3 µM is 92.9%.

**Q.** And the inhibition at 3 µM (WNK2)?
**A.** Its inhibition at 3 µM is 6.19%.

**Q.** And the remaining activity at 3 µM (WNK2; [1])?
**A.** Its remaining activity at 3 µM is 92.3%.

**Q.** What about the remaining activity at 3 µM (WNK2; [2]) of the same compound?
**A.** Its remaining activity at 3 µM is 95.3%.
